Results as given in article PMC6828666, “Discovery of holoenzyme-disrupting chemicals as substrate-selective CK2 inhibitors” (Scientific Reports, 2019).

How the values were obtained:
CK2α = CK2α (Homo sapiens, UniProt P68400); assay: STD-NMR competition with AMPPNP; assay type: binding
Experimental: (§1) Standard 1D, STD, and WaterLOGSY NMR spectra were acquired at 20 °C with a Bruker 600 MHz NMR spectrometer, equipped with a Z-gradient cryoprobe. WaterLOGSY mixing time was 1.5 s. Both STD and WaterLOGSY spectra were recorded for each sample. WaterLOGSY spectra in the absence of protein receptor were recorded with 300 µM compound to assess the compound solubility. All the NMR experiments were performed at 293 K with excitation sculpting to suppress peaks from water. 1D and STD experiments were performed using identical experimental conditions (spin lock, interscan delays), and parameters for the STD experiments (saturation frequency and saturation time) were identical for all samples. […] NMR tubes contained 2 μM CK2 with 300 μM of 4.
Fig. S8. NMR-based investigation of the binding of compound 4 to CK2α. (a) NMR-STD epitope mapping observed for compound 4. […] Both compounds bind simultaneously to CK2α.

[1] = Solubility in the protein buffer (WaterLOGSY NMR); assay type: physicochemical; settings: relative to the other compounds
Experimental: as §1

[2] = molecular target: T1, CK2 holoenzyme complexes in MCF10A cells (Homo sapiens, UniProt P68400); assay: In situ proximity ligation assay (PLA); assay type: cell-based; settings: 50 μM, 3 h, DMSO control 16 ± 4
T1 construct: endogenous in cells; host or cells: MCF10A
T1 sequence (P68400 whole entry, one chain of several): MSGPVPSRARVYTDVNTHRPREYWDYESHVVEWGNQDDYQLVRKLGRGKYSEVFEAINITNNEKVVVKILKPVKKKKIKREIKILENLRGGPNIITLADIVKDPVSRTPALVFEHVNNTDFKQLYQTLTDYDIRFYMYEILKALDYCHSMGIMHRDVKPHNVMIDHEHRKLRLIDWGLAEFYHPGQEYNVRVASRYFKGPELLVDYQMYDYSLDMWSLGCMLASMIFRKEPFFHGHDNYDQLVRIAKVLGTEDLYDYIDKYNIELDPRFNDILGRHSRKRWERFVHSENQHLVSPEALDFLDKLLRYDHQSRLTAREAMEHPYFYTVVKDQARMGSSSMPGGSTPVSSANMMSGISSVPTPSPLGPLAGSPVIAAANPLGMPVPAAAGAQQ
Experimental: In situ PLAs were performed using a Duolink kit (Olink Bioscience, Uppsala, Sweden) according to the manufacturer’s instructions with few modifications. MCF10A cells were fixed in 4% paraformaldehyde for 10 min. The cells were then permeabilized with 0.1% Triton in Tris-buffered saline (TBS; 50 mM Tris, pH 7.6, 150 mM NaCl) and incubated with 100 mM glycine in phosphate-buffered saline (137 mM NaCl, 2.7 mM KCl, 10 mM Na2 HPO4, and 1.8 mM KH2 PO4, pH 7.4) for 20 min. Permeabilized cells were incubated overnight at 4 °C with primary antibodies diluted as follows: mouse CK2α 1:250 and rabbit CK2β 1:50. Cells were washed three times in TBS with 0.05% Tween-20 for 5 min each with gentle agitation. Secondary antibodies conjugated with oligonucleotides, PLA probe anti-mouse MINUS and PLA probe anti-rabbit PLUS, were added to the cells and incubated for 90 min at 37 °C in a humidity chamber. Finally, after ligation and amplification steps, cells were counterstained with the DNA-binding dye Hoechst and Phaloïdine-488 for actin staining (Molecular Probes, Thermo Fisher Scientific, Courtaboeuf, France). Images were observed using a Zeiss Apotome microscope and analyzed using a Zen Pro imaging software (Zeiss, Oberkochen, Germany). Quantification was performed using the BlobFinder software (V3.2, Swedish University of Agricultural Sciences, Uppsala University)[67]. […]

[3] = system: survivin expression in MCF10A cells; assay: Western blot of survivin expression; assay type: cell-based, human; settings: 24 h, 25 μM 6 or 30 μM TAT-Pc
Experimental: (§2) Figure 5 Cellular effects of compounds 3, 4 and 6. MCF10A cells were incubated for 24 h with either DMSO or 30 μM TAT or 30 μM TAT-Pc or 25 μM 6 (a) or with increasing concentrations of 6 (b) or 3 (c). MCF10A cells were incubated for 48 h with either DMSO or with increasing concentrations of 3 or 6 (d). Cells were then lysed and analyzed by western blot with the indicated antibodies. Blot images are representative of at least three independent experiments. Uncropped blots are shown in Supplementary Fig. S16. (e) MDA-MB231 cells were treated with 40 μM 6 (⚬), 4 (▴) or 3 (X). (f) MDA-MB231 cells were treated for 30 h with increasing concentrations of 6 (⚬) or 4 (▴). Insert: cells were treated for 30 h with 80 μM 6 or 10 μM CX-4945. […] Cell death was automatically quantified from images captured every 3 h for the duration of the experiments using an Essen IncuCyte Zoom live-cell microscopy incubator. […]
(§3) Cells were lysed in RIPA buffer (10 mM Tris-HCl pH 7.4, 150 mM NaCl, 1% Triton X-100, 0.1% SDS, 0.5% DOC and 1 mM EDTA) containing both protease- and phosphatase-inhibitor cocktails (Sigma-Aldrich; P8340, P2850, P5726). Cell homogenates were quantified using BCA protein Assay kit (Thermo Scientific). […] Luminata Forte Western HRP substrate (Millipore) was added and membranes were read with Fusion Fx7 (PerkinElmer). […] Images were analyzed and band intensities were quantified using ImageJ software. […]

[4] = system: PARP cleavage in MCF10A cells; assay: Western blot of PARP cleavage; assay type: cell-based, human; settings: 24 h, 25 μM 6 or 30 μM TAT-Pc
Experimental: as §2, §3

Chain of CK2α (P68400 whole entry): as the sequence (P68400 whole entry, one chain of several) above

Row | displacement of AMPPNP upon compound binding (CK2α) | solubility in the protein buffer [1] | SMILES | CK2 holoenzyme complexes (PLA dots) [2] [dots/cell] | survivin expression [3] | PARP cleavage [4]
1 | not displaced | highest solubility | O=C(OCC1CCN(CCNS(=O)(=O)c2ccccc2)CC1)c1c[nH]c2ccccc12 [Compound 4, (1-(2-(Phenylsulfonamido)ethyl)piperidin-4-yl)methyl 1H-indole-3-carboxylate] | 8 ± 2 |  | 
2 |  |  | COc1[nH]c2ccc(F)cc2c1C(=O)OCC1CCN(CCNS(=O)(=O)c2ccccc2)CC1.Cl [Compound 6] | 6 ± 2 | decreased | No significant PARP cleavage
